This assay deals with VEGF-A. Briefly: Example 9 Luminex, LPS hPBMCs: VEGF-A. Format: cell-based, human. To be noted: Bead VEGF-A; for Concentration: dilution 2.0. Here is the method: Treatment Human PBMCs were pretreated with YY-101, YDE-011 and YDE-043 or reference compound; Xiidra® at various concentration (ranging from 1 nM to 100 uM) for 2 h before stimulation. An equal volume of 0.5% DMSO was used as a vehicle control. Then, the cells were treated with LPS at 5 ug/ml. The supernatants from treated cells were harvested at 24 h and placed in a 96 well for Luminex cytokine & chemokine profiling using a Luminex 200 multiplex assay (Luminex; R&D system, USA).
The main study arm with triplicate wells per group in a 24-well plate: • 1. Blank • 2. PBMC: 0.5% DMSO • 3. PBMC+LPS (5 ug/ml) • 4. PBMC+YY-101 100 uM • 5. PBMC+YY-101 10 uM • 6. PBMC+YY-101 1 uM • 7. PBMC+YY-101 0.1 uM • 8. PBMC+YY-101 0.01 uM • 9. PBMC+LPS (5 ug/ml)+Xiidra®100 uM • 10. PBMC+LPS (5 ug/ml)+Xiidra® 10 uM • 11. PBMC+LPS (5 ug/ml)+Xiidra® 1 uM • 12. PBMC+LPS (5 ug/ml)+Xiidra®0.1 uM • 13. PBMC+LPS (5 ug/ml)+Xiidra®0.01 uM • 14. PBMC+LPS (5 ug/ml)+Xiidra®0.001 uM • 15. PBMC+LPS (5 ug/ml)+YY-101 100 uM • 16. PBMC+LPS (5 ug/ml)+YY-101 10 uM • 17. PBMC+LPS (5 ug/ml)+YY-101 1 uM • 18. PBMC+LPS (5 ug/ml)+YY-101 0.1 uM • 19. PBMC+LPS (5 ug/ml)+YY-101 0.01 uM • 20. PBMC+LPS (5 ug/ml)+YY-101 0.001 uM • 21. PBMC+LPS (5 ug/ml)+YDE-011 100 uM • 22. PBMC+LPS (5 ug/ml)+YDE-011 10 uM • 23. PBMC+LPS (5 ug/ml)+YDE-011 1 uM • 24. PBMC+LPS (5 ug/ml)+YDE-011 0.1 uM • 25. PBMC+LPS (5 ug/ml)+YDE-011 0.01 uM • 26. PBMC+LPS (5 ug/ml)+YDE-011 0.001 uM • 27. PBMC+LPS (5 ug/ml)+YDE-043 100 uM • 28. PBMC+LPS (5 ug/ml)+YDE-043 10 uM • 29. PBMC+LPS (5 ug/ml)+YDE-043 1 uM • 30. PBMC+LPS (5 ug/ml)+YDE-043 0.1 uM • 31. PBMC+LPS (5 ug/ml)+YDE-043 0.01 uM • 32. PBMC+LPS (5 ug/ml)+YDE-043 0.001 uM
Multiplex assay was used to measure 30 cytokines and chemokines. The 1:2, 1:10 and 1:200 diluted cell supernatant and serial dilution of the standard were dispensed into a 96 well plate at 50 ul/well. Then, the pre-mixed cocktail of antibody-coated magnetic beads was dispensed at 50 ul/well and incubated at room temperature for 2 h in a horizontal orbital microplate shaker at 800±500 rpm. The beads were washed using a magnetic device to prevent loss. The biotin-antibody was dispensed in 50 ul of each well and incubated at room temperature for 1 h in a shaker at 800±500 rpm. After washing, streptavidin-PE was added at 50 ul/well and incubated at room temperature for 30 min in a shaker under the same conditions. Finally, after washing, wash buffer (100 ul/well) was added to the plate and incubated in a shaker for 2 min. The Luminex™ 200 setting were set according to the manufacturer's protocol. The data was calculated with a standard five-parameter logistic nonlinear regression analysis of the data (xPonent software 4.2, USA). The levels of cytokine/chemokine are normalized to the live cell counts (1×10^5 cells/mL) and presented as concentrations per mL (pg/mL or ng/mL).

Where [1] appears, read: PBMC + LPS(5 ug/ml) + test article 0.001 uM, Mean.
Where [2] appears, read: PBMC + LPS(5 ug/ml) + test article 0.001 uM, single replicates.
Where [3] appears, read: PBMC + LPS(5 ug/ml) + test article 0.01 uM, Mean.
Where [4] appears, read: PBMC + LPS(5 ug/ml) + test article 0.01 uM, single replicates.
Setting [5] is: PBMC + LPS(5 ug/ml) + test article 0.1 uM, Mean.
The mark [6] stands for this setting: PBMC + LPS(5 ug/ml) + test article 0.1 uM, single replicates.
[7] abbreviates: PBMC + LPS(5 ug/ml) + test article 1 uM, Mean.
Where [8] appears, read: PBMC + LPS(5 ug/ml) + test article 1 uM, single replicates.
The mark [9] stands for this setting: PBMC + LPS(5 ug/ml) + test article 10 uM, Mean.
[10] abbreviates: PBMC + LPS(5 ug/ml) + test article 10 uM, single replicates.
The mark [11] stands for this setting: PBMC + LPS(5 ug/ml) + test article 100 uM, Mean.
The mark [12] stands for this setting: PBMC + LPS(5 ug/ml) + test article 100 uM, single replicates.

Several values for one entry are separate records, joined by “and”; a condition that tells them apart may be missing. Equal values may be shown once. Where a SMILES comes first, the peptide text is derived from it. [ ]: non-standard residue; d: D form. Hyp = O=C(O)[C@@H]1C[C@@H](O)CN1

Regarding `CC(C)C[C@H](NC(=O)[C@H](CCC(N)=O)NC(=O)CNC(=O)[C@@H]1C[C@@H](O)CN1)C(=O)NCC(=O)O` [YDE-043] (H-[Hyp]GQLG-OH; N-terminus and C-terminus assumed), the conc/live cell under setting [1] stood at 0.7 pg/10^5; the conc/live cell under setting [2] was 0.8 pg/10^5 (2×) and 0.6 pg/10^5; the conc/live cell under setting [3] amounted to 0.1 pg/10^5; the conc/live cell under setting [4] is listed as 0.1 pg/10^5; the conc/live cell under setting [5] is 0.1 pg/10^5; the conc/live cell under setting [6] came out at 0.1 pg/10^5. The conc/live cell was 0.8 pg/10^5 under setting [7]; 1.1 pg/10^5 and 0.7 pg/10^5 (2×) under setting [8]; 0.7 pg/10^5 under setting [9]; 0.0 pg/10^5 and 1.1 pg/10^5 and 0.9 pg/10^5 under setting [10]; 0.4 pg/10^5 under setting [11]; 0.8 pg/10^5 and 0.0 pg/10^5 under setting [12]. Further, the Concentration was determined as 3.6 pg/mL under setting [1]; 3.6 pg/mL under setting [2]; 0.6 pg/mL under setting [3]; 0.6 pg/mL under setting [4]; 0.6 pg/mL under setting [5]; 0.6 pg/mL under setting [6]. The Concentration reads like this: under setting [7], 4.4 pg/mL; under setting [8], 6.1 pg/ml and 3.6 pg/ml (2×); under setting [9], 5.5 pg/mL; under setting [10], 6.1 pg/mL and 4.9 pg/mL; under setting [11], 4.9 pg/mL; under setting [12], 4.9 pg/mL.
